{
  "source": "patent US10138490B2",
  "about": "“Transformed plants tolerant to herbicides due to overexpression of prephenate dehydrogenase and p-hydroxyphenylpyruvate dioxygenase” (priority 2002, dated 2018)",
  "format_in_all_cases": "in vivo",
  "key": {"[1]": {"tested_on": "PBD6-ARA9 tobacco line (overexpressing A. thaliana HPPD)", "experiment": "Tolerance to HPPD inhibitors: sowing on increasing concentrations of DKN, parental line", "text": "(§1) The tolerance of the transformed plants is studied by sowing on a soil treated with diketonitrile (DKN).\n(§2) 13 ARA9-PDH lines and the PBD6-ARA9 line that was used as starting material for the transformation were sown on increasing concentrations of DKN:5, 10 and 32 ppm."}, "[2]": {"tested_on": "ARA9-PDH tobacco lines (overexpressing PDH and HPPD)", "experiment": "Tolerance to HPPD inhibitors: sowing on increasing concentrations of DKN, doubly transformed lines", "text": "as §1, §2"}, "[3]": {"tested_on": "ARA9-PDH18 tobacco line", "experiment": "Tolerance to sulcotrione and to mesotrione, ARA9-PDH18 line", "experimental": "as §2\nThe same experiment was carried out with the HPPD inhibitors sulcotrione and mesotrione."}, "[4]": {"tested_on": "wild-type tobacco line of the Petit Havana type", "experiment": "Tolerance to sulcotrione and to mesotrione, wild-type line"}},
  "data": [
    {"smiles": "CS(=O)(=O)c1cc(C(F)(F)F)ccc1C(=O)C(C#N)C(=O)C1CC1", "note": "(centres unmarked) [DKN]", "values": [
      {"measurement": "response of line sown on DKN", "setting": "[1]; 5 ppm DKN", "result": "resistant"},
      {"measurement": "response of line sown on DKN", "setting": "[1]; 10 ppm DKN", "result": "completely inhibited"},
      {"measurement": "response of line sown on DKN", "setting": "[1]; 32 ppm DKN", "result": "completely inhibited"},
      {"measurement": "response of lines sown on DKN", "setting": "[2]; 5 ppm DKN, all 13 ARA9-PDH lines", "result": "resistant"},
      {"measurement": "response of line sown on DKN", "setting": "[2]; 10 ppm DKN, ARA9-PDH4 line", "result": "inhibited"},
      {"measurement": "response of lines sown on DKN", "setting": "[2]; 10 ppm DKN, all ARA9-PDH lines except ARA9-PDH4", "result": "resist well"},
      {"measurement": "response of lines sown on DKN", "setting": "[2]; 32 ppm DKN, ARA9-PDH lines that were resistant to 10 ppm", "result": "resistant and grow normally"}
    ]},
    {"smiles": "CS(=O)(=O)c1ccc(C(=O)C2C(=O)CCCC2=O)c(Cl)c1", "note": "[sulcotrione]", "values": [
      {"measurement": "concentration of HPPD inhibitor the line is tolerant to", "setting": "[3]", "result": 6, "unit": "µM"},
      {"measurement": "concentration of HPPD inhibitor the line is sensitive to", "setting": "[4]", "result": 0.375, "unit": "µM"}
    ]},
    {"smiles": "CS(=O)(=O)c1ccc(C(=O)C2C(=O)CCCC2=O)c([N+](=O)[O-])c1", "note": "[mesotrione]", "values": [
      {"measurement": "concentration of HPPD inhibitor the line is tolerant to", "setting": "[3]", "result": 3, "unit": "µM"},
      {"measurement": "concentration of HPPD inhibitor the line is sensitive to", "setting": "[4]", "result": 0.375, "unit": "µM"}
    ]}
  ]
}
